# Laboratory results taken from patent US10479795B2 (Incyte Corporation, priority 2016, dated 2019).
# Counter-ions that a name gives are not always drawn. Like-named read-outs stand apart in the source and are kept apart here.
# Assays:
# [1] = target: PI3Kδ (p110δ/p85α) Recombinant Human Protein (Homo sapiens (Human), UniProt O00329); experiment: PI3Kδ Scintillation Proximity Assay; assay type: biochemical
# Outline: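 IC50 was fitted to percent solvent-control activity from SPA scintillation counts after WGA bead capture of 33P-labelled lipid product. Reaction: 120 min, room temperature, 3.4 nM p110δ/p85α, 20 μM PIP2, 2 μM ATP with tracer, MOPS pH 6.7 buffer containing MgCl2, DTT, CHAPS, 2% DMSO.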
# [2] = system: Phosphorylated Ribosomal Protein S6 (RPS6); experiment: THP-1 RPS6 ELISA Assay; assay type: cell-based, Human; conditions: THP-1 cells, read-out: PI3Kγ_THP1_RPS6_ELISA IC50
# Outline: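 IC50 values come from a curve of percent inhibition against log compound concentration, using phospho-RPS6 ELISA (450 nm) on THP-1 lysates. Cells were serum-starved overnight, exposed to compound for 2 h at 37 °C, then challenged 15 min with 10 nM MCP-1.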
# [3] = target: PI3Kγ (p110γ) Recombinant Human Protein (Homo sapiens (Human), UniProt P48736); experiment: PI3K-γ Scintillation Proximity Assay; assay type: biochemical; conditions: read-out: PI3Kγ IC50
# Outline: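 Radiometric SPA readout: […] bound to WGA beads after overnight shaking, IC50 derived from % activity of DMSO control. Reaction used human p110γ, 2 μM ATP, 20 μM PIP2, pH 6.7 MOPS buffer with MgCl2, DTT, CHAPS, 2% DMSO, room temperature.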
# Chain of PI3Kγ (p110γ) Recombinant Human Protein (P48736 whole entry): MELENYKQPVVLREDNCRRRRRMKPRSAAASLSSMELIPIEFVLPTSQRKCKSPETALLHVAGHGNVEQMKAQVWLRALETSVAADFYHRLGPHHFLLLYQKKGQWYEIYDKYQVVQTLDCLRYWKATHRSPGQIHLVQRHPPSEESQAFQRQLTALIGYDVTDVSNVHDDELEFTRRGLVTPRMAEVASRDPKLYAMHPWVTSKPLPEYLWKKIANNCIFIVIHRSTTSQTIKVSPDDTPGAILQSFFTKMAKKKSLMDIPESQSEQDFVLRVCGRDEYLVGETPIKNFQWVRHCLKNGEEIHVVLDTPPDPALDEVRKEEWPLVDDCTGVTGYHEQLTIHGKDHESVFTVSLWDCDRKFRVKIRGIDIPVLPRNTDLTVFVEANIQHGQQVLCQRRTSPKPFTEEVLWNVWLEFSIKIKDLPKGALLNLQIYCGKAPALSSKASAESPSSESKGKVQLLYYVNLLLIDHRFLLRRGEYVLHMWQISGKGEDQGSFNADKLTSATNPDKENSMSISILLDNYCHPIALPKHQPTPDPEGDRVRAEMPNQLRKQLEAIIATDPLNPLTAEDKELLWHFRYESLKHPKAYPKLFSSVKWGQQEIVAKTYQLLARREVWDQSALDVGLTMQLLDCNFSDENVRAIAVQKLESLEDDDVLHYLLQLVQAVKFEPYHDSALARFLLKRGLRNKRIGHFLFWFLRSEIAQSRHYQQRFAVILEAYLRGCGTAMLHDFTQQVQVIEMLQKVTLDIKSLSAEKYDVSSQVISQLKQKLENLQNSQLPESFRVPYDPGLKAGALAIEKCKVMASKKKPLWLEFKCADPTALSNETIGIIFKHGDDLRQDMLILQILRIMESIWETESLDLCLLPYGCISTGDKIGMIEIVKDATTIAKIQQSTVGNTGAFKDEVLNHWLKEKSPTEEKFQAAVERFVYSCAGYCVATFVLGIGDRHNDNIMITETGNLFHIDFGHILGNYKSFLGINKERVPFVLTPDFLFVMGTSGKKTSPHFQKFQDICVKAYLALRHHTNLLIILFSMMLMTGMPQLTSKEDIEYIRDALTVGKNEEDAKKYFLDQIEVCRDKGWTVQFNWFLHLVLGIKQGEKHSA
# Chain of PI3Kδ (p110δ/p85α) Recombinant Human Protein (O00329 whole entry): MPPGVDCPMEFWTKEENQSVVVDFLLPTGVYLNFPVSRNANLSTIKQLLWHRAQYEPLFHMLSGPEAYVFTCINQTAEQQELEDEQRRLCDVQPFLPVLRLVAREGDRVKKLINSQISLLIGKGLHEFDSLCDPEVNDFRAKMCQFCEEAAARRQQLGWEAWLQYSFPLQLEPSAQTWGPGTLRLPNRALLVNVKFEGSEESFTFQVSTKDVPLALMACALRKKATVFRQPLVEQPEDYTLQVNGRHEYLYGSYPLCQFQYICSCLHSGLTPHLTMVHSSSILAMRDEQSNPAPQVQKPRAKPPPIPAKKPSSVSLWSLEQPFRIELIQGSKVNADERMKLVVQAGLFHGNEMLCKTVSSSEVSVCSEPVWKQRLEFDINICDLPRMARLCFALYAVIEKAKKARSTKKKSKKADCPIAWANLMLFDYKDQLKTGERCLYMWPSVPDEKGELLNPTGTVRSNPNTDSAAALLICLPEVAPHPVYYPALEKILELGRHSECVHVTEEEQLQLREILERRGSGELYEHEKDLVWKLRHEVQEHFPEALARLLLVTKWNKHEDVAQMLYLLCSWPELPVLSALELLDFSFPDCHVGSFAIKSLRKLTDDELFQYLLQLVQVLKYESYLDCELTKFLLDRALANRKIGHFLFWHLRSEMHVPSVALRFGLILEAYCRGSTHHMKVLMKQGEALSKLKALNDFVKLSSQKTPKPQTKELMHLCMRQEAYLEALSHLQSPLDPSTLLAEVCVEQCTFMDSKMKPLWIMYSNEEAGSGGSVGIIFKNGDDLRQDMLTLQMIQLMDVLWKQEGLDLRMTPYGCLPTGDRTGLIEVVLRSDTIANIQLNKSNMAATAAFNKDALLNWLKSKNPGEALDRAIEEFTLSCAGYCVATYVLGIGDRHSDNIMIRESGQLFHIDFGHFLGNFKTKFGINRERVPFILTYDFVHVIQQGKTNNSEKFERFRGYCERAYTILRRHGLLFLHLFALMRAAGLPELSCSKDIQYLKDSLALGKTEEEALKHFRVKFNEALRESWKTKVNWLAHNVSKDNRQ
# Chain of PI3Kδ (p110δ/p85α) Recombinant Human Protein (P27986 whole entry partner): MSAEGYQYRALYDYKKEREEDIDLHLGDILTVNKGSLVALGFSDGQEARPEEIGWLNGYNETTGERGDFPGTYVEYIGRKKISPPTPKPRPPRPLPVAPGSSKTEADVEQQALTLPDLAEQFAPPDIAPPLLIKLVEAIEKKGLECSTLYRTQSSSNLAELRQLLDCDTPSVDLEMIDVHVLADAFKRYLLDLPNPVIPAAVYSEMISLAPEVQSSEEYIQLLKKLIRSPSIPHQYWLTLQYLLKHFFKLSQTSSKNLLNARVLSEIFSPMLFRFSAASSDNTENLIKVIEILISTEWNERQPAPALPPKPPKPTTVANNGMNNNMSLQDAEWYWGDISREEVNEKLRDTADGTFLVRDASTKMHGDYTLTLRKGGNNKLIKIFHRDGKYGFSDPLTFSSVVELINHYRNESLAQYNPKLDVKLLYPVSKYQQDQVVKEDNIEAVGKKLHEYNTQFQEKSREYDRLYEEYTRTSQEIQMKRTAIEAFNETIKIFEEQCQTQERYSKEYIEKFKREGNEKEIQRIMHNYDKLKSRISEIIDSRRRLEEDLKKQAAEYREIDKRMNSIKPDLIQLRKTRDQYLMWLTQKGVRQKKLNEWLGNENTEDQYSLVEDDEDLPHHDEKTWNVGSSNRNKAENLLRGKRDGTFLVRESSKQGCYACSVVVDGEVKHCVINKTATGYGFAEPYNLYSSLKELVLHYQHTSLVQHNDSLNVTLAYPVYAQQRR
Structure (SMILES),IC50 [1] [nM],IC50 ([2]; Homo sapiens) [nM],IC50 [3] [nM],IC50 [2] [nM]
"Cc1ccc(S(=O)(=O)N[C@H]2CC[C@H](C(C)(C)O)CC2)cc1-c1cnc2c(N)ncnn12 [Example 125, 3-(4-aminoimidazo[2,1-f][1,2,4]triazin-7-yl)-N-[trans-4-(1-hydroxy-1-methylethyl)cyclohexyl]-4-methylbenzenesulfonamide]",500 to 2000,> 1000,< 100,
"Cc1ccc(S(=O)(=O)NC2CC(CO)(CO)C2)cc1-c1cnc2c(N)ncnn12 [Example 126, 3-(4-aminoimidazo[2,1-f][1,2,4]triazin-7-yl)-N-[3,3-bis(hydroxymethyl)cyclobutyl]-4-methylbenzenesulfonamide]",500 to 2000,100 to 500,< 100,
"Cc1ccc(S(=O)(=O)N[C@]2(C)CC[C@@H](O)CC2)cc1-c1cnc2c(N)ncnn12 [Example 127, 3-(4-aminoimidazo[2,1-f][1,2,4]triazin-7-yl)-N-(trans-4-hydroxy-1-methylcyclohexyl)-4-methylbenzenesulfonamide]",500 to 2000,,< 100,100 to 500
"Cc1ccc(S(=O)(=O)N2CC(CO)C2)cc1-c1cnc2c(N)ncnn12 [Example 128, (1-((3-(4-aminoimidazo[2,1-f][1,2,4]triazin-7-yl)-4-methylphenyl)sulfonyl)azetidin-3-yl)methanol]",100 to 500,100 to 500,< 100,
"Cc1ccc(S(=O)(=O)NCCN2CCS(=O)(=O)CC2)cc1-c1cnc2c(N)ncnn12 [Example 129, 3-(4-aminoimidazo[2,1-f][1,2,4]triazin-7-yl)-N-(2-(1,1-dioxidothiomorpholino)ethyl)-4-methylbenzenesulfonamide]",100 to 500,< 100,< 100,
"Cc1ccc(S(=O)(=O)NCC2CCC(F)(F)CC2)cc1-c1cnc2c(N)ncnn12 [Example 130, 3-(4-aminoimidazo[2,1-f][1,2,4]triazin-7-yl)-N-((4,4-difluorocyclohexyl)methyl)-4-methylbenzenesulfonamide]",500 to 2000,500 to 1000,< 100,
"Cc1ccc(S(=O)(=O)N2CC(F)C2)cc1-c1cnc2c(N)ncnn12 [Example 131, 7-(5-((3-fluoroazetidin-1-yl)sulfonyl)-2-methylphenyl)imidazo[2,1-f][1,2,4]triazin-4-amine]",500 to 2000,> 1000,100 to 500,
"Cc1ccc(S(=O)(=O)NC2CC(F)(F)C2)cc1-c1cnc2c(N)ncnn12 [Example 132, 3-(4-aminoimidazo[2,1-f][1,2,4]triazin-7-yl)-N-(3,3-difluorocyclobutyl)-4-methylbenzenesulfonamide]",100 to 500,100 to 500,< 100,
"Cc1ccc(S(=O)(=O)N[C@H]2CC[C@@](C)(O)CC2)cc1-c1cnc2c(N)ncnn12 [Example 133, 3-(4-aminoimidazo[2,1-f][1,2,4]triazin-7-yl)-N-((1S,4S)-4-hydroxy-4-methylcyclohexyl)-4-methylbenzenesulfonamide]",500 to 2000,,< 100,> 1000
"Cc1ccc(S(=O)(=O)NCC2(F)CCOCC2)cc1-c1cnc2c(N)ncnn12 [Example 134, 3-(4-aminoimidazo[2,1-f][1,2,4]triazin-7-yl)-N-((4-fluorotetrahydro-2H-pyran-4-yl)methyl)-4-methylbenzenesulfonamide]",500 to 2000,100 to 500,< 100,
"Cc1ccc(S(=O)(=O)NCC2CCS(=O)(=O)C2)cc1-c1cnc2c(N)ncnn12 (stereo not drawn) [Example 135, 3-(4-aminoimidazo[2,1-f][1,2,4]triazin-7-yl)-N-((1,1-dioxidotetrahydrothiophen-3-yl)methyl)-4-methylbenzenesulfonamide]",100 to 500,> 1000,< 100,
"Cc1ccc(S(=O)(=O)NCC2CCN(C(=O)C3CC3)CC2)cc1-c1cnc2c(N)nccn12 [Example 136, 3-(8-aminoimidazo[1,2-a]pyrazin-3-yl)-N-((1-(cyclopropanecarbonyl)piperidin-4-yl)methyl)-4-methylbenzenesulfonamide]",> 2000,> 1000,100 to 500,
"Cc1ccc(S(=O)(=O)NC2CCCCC2O)cc1-c1cnc2c(N)ncnn12 (stereo not drawn) [Example 137, 3-(4-aminoimidazo[2,1-f][1,2,4]triazin-7-yl)-N-(2-hydroxycyclohexyl)-4-methylbenzenesulfonamide]",500 to 2000,> 1000,< 100,
"Cc1ccc(S(=O)(=O)NCCN2CCCC2=O)cc1-c1cnc2c(N)ncnn12 [Example 138, 3-(4-aminoimidazo[2,1-f][1,2,4]triazin-7-yl)-4-methyl-N-(2-(2-oxopyrrolidin-1-yl)ethyl)benzenesulfonamide]",500 to 2000,> 1000,< 100,
"Cc1ccc(S(N)(=O)=O)cc1-c1cnc2c(N)ncnn12 [Example 139, 3-(4-aminoimidazo[2,1-f][1,2,4]triazin-7-yl)-4-methylbenzenesulfonamide]",500 to 2000,> 1000,< 100,
"Cc1ccc(S(=O)(=O)N[C@H]2C[C@](O)(C(F)(F)F)C2)cc1-c1cnc2c(N)ncnn12 [Example 140, 3-(4-aminoimidazo[2,1-f][1,2,4]triazin-7-yl)-N-((1S,3S)-3-hydroxy-3-(trifluoromethyl)cyclobutyl)-4-methylbenzenesulfonamide]",500 to 2000,,< 100,100 to 500
"Cc1ccc(S(=O)(=O)N2CC3(C2)CC(O)(C(F)(F)F)C3)cc1-c1cnc2c(N)ncnn12 [Example 141, 2-((3-(4-aminoimidazo[2,1-f][1,2,4]triazin-7-yl)-4-methylphenyl)sulfonyl)-6-(trifluoromethyl)-2-azaspiro[3.3]heptan-6-ol]",100 to 500,100 to 500,< 100,
"Cc1ccc(S(=O)(=O)N2CCC3(CCOCC3)C2)cc1-c1cnc2c(N)ncnn12 [Example 142, 7-(5-((8-oxa-2-azaspiro[4.5]decan-2-yl)sulfonyl)-2-methylphenyl)imidazo[2,1-f][1,2,4]triazin-4-amine]",500 to 2000,100 to 500,< 100,
"Cc1ccc(S(=O)(=O)N2CC3(COC3)C2)cc1-c1cnc2c(N)ncnn12 [Example 143, 7-(5-((2-oxa-6-azaspiro[3.3]heptan-6-yl)sulfonyl)-2-methylphenyl)imidazo[2,1-f][1,2,4]triazin-4-amine]",100 to 500,> 1000,< 100,
"Cc1ccc(S(=O)(=O)N2CC(O)(C3CC3)C2)cc1-c1cnc2c(N)ncnn12 [Example 144, 1-((3-(4-aminoimidazo[2,1-f][1,2,4]triazin-7-yl)-4-methylphenyl)sulfonyl)-3-cyclopropylazetidin-3-ol, TFA]",100 to 500,,< 100,500 to 1000
"Cc1ccc(S(=O)(=O)N2CC3(CC(O)C3)C2)cc1-c1cnc2c(N)ncnn12 [Example 145, 2-((3-(4-aminoimidazo[2,1-f][1,2,4]triazin-7-yl)-4-methylphenyl)sulfonyl)-2-azaspiro[3.3]heptan-6-ol, TFA]",100 to 500,,< 100,100 to 500
"Cc1ccc(S(=O)(=O)N2C(C)COCC2C)cc1-c1cnc2c(N)ncnn12 (stereo not drawn) [Example 155, 7-(5-((3,5-dimethylmorpholino)sulfonyl)-2-methylphenyl)imidazo[2,1-f][1,2,4]triazin-4-amine]",100 to 500,100 to 500,< 100,
"Cc1ccc(S(=O)(=O)N2CCOCC2(C)C)cc1-c1cnc2c(N)ncnn12 [Example 156, 7-(5-((3,3-dimethylmorpholino)sulfonyl)-2-methylphenyl)imidazo[2,1-f][1,2,4]triazin-4-amine]",500 to 2000,500 to 1000,< 100,
"Cc1ccc(S(=O)(=O)N2C(C)CCCC2CO)cc1-c1cnc2c(N)ncnn12 (stereo not drawn) [Example 157, (1-((3-(4-aminoimidazo[2,1-f][1,2,4]triazin-7-yl)-4-methylphenyl)sulfonyl)-6-methylpiperidin-2-yl)methanol]",500 to 2000,500 to 1000,< 100,
"Cc1ccc(S(=O)(=O)N(CCC#N)C2CCCC2)cc1-c1cnc2c(N)ncnn12 [Example 165, 3-(4-aminoimidazo[2,1-f][1,2,4]triazin-7-yl)-N-(2-cyanoethyl)-N-cyclopentyl-4-methylbenzenesulfonamide]",100 to 500,500 to 1000,< 100,
"Cc1ccc(S(=O)(=O)N2CCNC[C@@H]2CO)cc1-c1cnc2c(N)ncnn12 [Example 166, (R)-(1-((3-(4-aminoimidazo[2,1-f][1,2,4]triazin-7-yl)-4-methylphenyl)sulfonyl)piperazin-2-yl)methanol]",100 to 500,100 to 500,< 100,
"Cc1ccc(S(=O)(=O)N(CCC#N)CCCO)cc1-c1cnc2c(N)ncnn12 [Example 175, 3-(4-aminoimidazo[2,1-f][1,2,4]triazin-7-yl)-N-(2-cyanoethyl)-N-(3-hydroxypropyl)-4-methylbenzenesulfonamide]",100 to 500,100 to 500,< 100,
